# Measured values taken from patent publication US11479770B2, “Use of p38 inhibitors to reduce expression of DUX4” (Fulcrum Therapeutics, Inc., priority 2017, dated 2022).
# Legend:
# Format in all cases: cell-based, human
# [1] = system: MBD3L2 mRNA (DUX4 downstream gene); experiment: MBD3L2 mRNA expression (qPCR) in FSHD myotubes
# Method: (§1) On day 0, the media was changed to differentiation media. Plates were removed from the incubator and the growth medium was aspirated, plates were washed once with PBS, 100 μL, for 96-wells and 1 mL for a 6-well plate, 100 μL, or 2 mL of differentiation medium was added per well, 96- or 6-well respectively. Antisense oligonucleotides or drug were added at the desired concentration, and the plates were put back in the incubator and incubated for 3-4 days.
# (§2) Cells were removed from the incubator and media aspirated. Cells were quickly lysed following one of the following protocols: for lysis in 96-well plates, direct lysis and one-step RT-Preamp qPCR was performed according to the protocol described below. For each 96-well, a mix containing: 19.5 μL Roche Realtime Ready lysis buffer, 0.25 μL RNAse inhibitor, 0.25 μL DNAseI (from Thermo not the included one in the kit) was prepared. 20 μL of the mix was added to each well, mixed 5 times, and incubated 5 minutes at RT or alternatively shaken vigorously for 15 minutes. Lysis was observed under the microscope. Samples were frozen −80° C. at least for 15 minutes.
# 1-step RT-Preamplification was used for detection of DUX4 downstream genes, i.e., MBD3L2, ZSCAN4, LEUTX, TRIM43, KHDC1L, and POL2RA-VIC was used as endogenous control. Per 10 μL reaction, the reaction mix included: 2.25 μL of RNA (1:10 dilution lysate), 5 μL of Taqman Pre-Amp Master Mix (2×), 0.25 μL of RT enzyme mix (40×), 2.5 μL of Taqman probe set (0.2×)*. * For pooling the TaqMan Assays, equal volumes of each 20× TaqMan® Gene Expression Assay were used, and up to 100 assays were combined. For example, to pool 50 TaqMan assays, 10 μL of each assay were combined in a microcentrifuge tube. The pooled TaqMan assays were diluted using 1× TE buffer so that each assay was at a final concentration of 0.2×. For the above example, 500 μL of 1× TE buffer was added to the pooled TaqMan assays for a total final volume of 1 mL. The QuantStudio7 protocol was used at 48° C. 15 min, 95° C. 10 min, 10 cycles: 95° C. 15 sec, 60° C. 4 min, and 4° C. infinite Samples were then diluted to 50 μL and continued with the qPCR step. Per 10 μL reaction, the reaction mix included: 2 μL of Preamp dilution, 5 μL of Fast Advanced Taqman Master Mix (2×), 0.5 μL of Taqman probe set (20×), and 2.5 μL of H2O. When multiplexing, the volume was adjusted to 10 μL total. The following program was run on the QuantStudio7: 50° C. for 2 min, 95° C. for 30 sec, 40×, 95° C. for 5 sec, 60° C. for 30 sec, and plates were read as per the manufacturers specifications (Thermo).
# (§3) Wild type myotubes and mature patient-derived FSHD myotubes that express DUX4 protein were treated with DMSO vehicle control or multiple concentrations of various p38α/β inhibitors with different ranges of isoform and kinome selectivity, including SB239063 (FIG. 4A), VX-702 (FIG. 4B), Pamapimod (FIG. 4C), and TAK-715 (FIG. 4D). After treatment, the control and treated cells were processed for realtime PCR quantification of MBD3L2 mRNA (DUX4 downstream gene) and myogenin (MYOG) mRNA (control) expression.
# [2] = system: ZSCAN4, TRIM43, MBD3L2, LEUTX, and KHDC1L; experiment: DUX4-regulated downstream gene expression (real time PCR) in FSHD myotubes; conditions: 1 μM ASO
# Method: Wild type myotubes were treated with DMSO control vehicle, and mature patient-derived FSHD myotubes that express DUX4 protein were treated with DMSO vehicle control or 1 μM of a DUX4 sequence-directed antisense oligonucleotide (ASO; FTX-2) purchased from Exiqon. After treatment, the myotubes were lysed in 19.5 μL of Roche Real Time Ready Lysis Buffer, 0.25 μL of DNAse1 (Ambion, AM2222), 0.25 μL of Protector RNase Inhibitor (Roche, 3335402001), and the RNA was collected in an RNeasy Micro Kit Master Mix. Expression levels of DUX4-regulated downstream genes (ZSCAN4, TRIM43, MBD3L2, LEUTX, and KHDC1L) was determined by real time PCR (ThermoFisher Scientific, 4484262), ZSCAN4 Taqman Assay (ThermoFisher Scientific, Hs00537549_m1, FAM-MGB), MYOG Taqman Assay (ThermoFisher Scientific, Hs01072232_m1, JUN-QSY), RPLPO Taqman Assay (ThermoFisher Scientific, Hs99999902_m1), and/or LEUTX Taqman Assay (ThermoFisher Scientific, Hs00418470_m1). Ct values were extracted from QuantStudio Realtime PCR software, and Genedata was used to calculate relative levels of expression using POLR2A as a housekeeping gene.
# DUX4-fl mRNA = experiment: DUX4 / DUX4-fl mRNA expression in FSHD myotubes
# Method: cDNA preparation. 10 μL reactions included 1 μL of RNA (1 μg), 0.5 μL of Oligo dT, 0.5 μL of 10 mM dNTPs, and 4.5 μL of H2O. Reaction samples were incubated at 65° C. for 2 min and quickly moved to ice and held at least 1 min before adding the enzyme mix, which included 2 μL of 5× First strand Buffer, 0.5 μL of 0.1M DTT, 0.5 μL of RNAse inhibitor, 0.5 μL of SSIV RT. The samples were incubated at 55° C. for 20 min and 80° C. for 10 min, followed by cool down to 4° C. […]
# DUX4 qPCR with nested primers was performed in a 10 μL reaction containing 1 μL of DUX4 pre amplification DNA, 5 μL of 2× IQ SYBR Mix, 0.4 μL of 10 μM TJ38F, 0.4 μL of 10 μM TJ41R, and 3.2 μL H2O. […] 10 seconds, then the plates were read on QuantStudio7 as per manufactures instruction (Thermo). […]
# Wild type myotubes were treated with DMSO control vehicle, and mature patient-derived FSHD myotubes that express DUX4 protein were treated with DMSO vehicle control or 1 μM of a DUX4 sequence-directed antisense oligonucleotide (ASO; FTX-2) purchased from Exiqon. After treatment, the myotubes were lysed in 19.5 μL of Roche Real Time Ready Lysis Buffer, 0.25 μL of DNAse1 (Ambion, AM2222), 0.25 μL of Protector RNase Inhibitor (Roche, 3335402001), and the RNA was collected in an RNeasy Micro Kit Master Mix. […]
# active Caspase-3 = experiment: Apoptosis by active Caspase-3 in FSHD myotubes; conditions: 1 μM; to level similar to healthy control line
# Method: Briefly, cells were fixed in 4% paraformaldehyde and permeabilized in […] for 10 min at room temperature. Cells were permeabilized with PBST (1× PBS solution with 0.1% Triton X-100) before blocking with 10% Normal Donkey Serum or 3% BSA (NDS) in PBST. Cells were then incubated with appropriately diluted primary antibodies in PBST with 5% NDS for 1 hours at room temperature or 12 hours at 4° C., washed with PBST for 3 times at room temperature, and then incubated with desired secondary antibodies in TBST with 5% NDS and DAPI to counterstain the nuclei. DUX4 was detected by immunocytochemistry using the E5-5 antibody in differentiated FSHD myotubes. Activated Caspase-3 was detected using a commercially available antibody (https://www.cellsignal.com/products/primary-antibodies/cleaved-caspase-3-asp175-antibody/9661).
# Apoptosis was measured by active Caspase-3 levels in FSHD myotubes in vitro as described in Materials and Methods. Apoptosis was detected in a sporadic manner in a subset of myotubes in culture as shown by the white circles and magnified region in FIG. 9A. Active Caspase-3 signal was quantified in FSHD myotubes that had been treated with FTX-1821 at different concentrations (FIG. 9B). […] No change in active Caspase-3 signal was observed following DMSO treatment. […]
# myogenin (MYOG) mRNA = experiment: MYOG mRNA expression (qPCR) in FSHD myotubes; conditions: multiple concentrations
# Method: as §1, §2
# For qPCR, cell lysate was diluted 1:10, and 2 μL was used for a 10 μL 1-step RT-qPCR reaction for detection of GAPDH, RPLPO, TBP, MYOG, FRG1, MYH3, ACTN2, etc. Per 10 μL reaction, the reaction mix included: 2 μL of RNA (1:10 dilution lysate), 5 μL of Fast Advanced Taqman Master Mix (2×), 0.25 μL of RT enzyme mix (40×), 0.5 μL of Taqman probe set (20×), and 2.25 μL of H2O. The following reaction protocol was run on the QuantStudio 7: 48° C. for 15 min, 50° C. for 2 min, 95° C. for 30 sec, 40×, 95° C. for 5 sec, 60° C. for 30 sec, after which the plates were read as specified by the manufacturer (Thermo).
# as §3
compound,measurement,setting,value
"FTX-2: DUX4 sequence-directed antisense oligonucleotide purchased from Exiqon, CAGCGTCGGAAGGTGG (SEQ ID NO:18) (listed as DNA, chemistry not given here)","MBD3L2 expression, different dilutions","[1]; FSHD myotubes, different dilutions of the ASO",dose dependent reduction
same,"expression of DUX4 downstream target genes ZSCAN4, TRIM43, MBD3L2, LEUTX, and KHDC1L vs DMSO",[2],reduced
same,DUX4 expression vs DMSO vehicle control,DUX4-fl mRNA; 1 μM ASO,reduced
same,"DUX4 expression, different dilutions",DUX4-fl mRNA; different dilutions of the ASO,dose dependent reduction
"Cn1c(=O)c(Oc2ccc(F)cc2F)cc2cnc(NC(CCO)CCO)nc21 [FTX-839, Pamapimod]",MBD3L2 mRNA in FSHD1 and FSHD2 primary patient myoblast lines,"[1]; 1 μM, to levels similar to healthy control lines",reduction
same,MBD3L2 mRNA levels normalized to POLR2A mRNA,"[1]; FSHD myotubes, 10, 100, and 1000 nM vs DMSO",dose-dependently reduced
same,MBD3L2 expression levels in four FSHD patient lines,"[1]; FTCE-016, -020, -197, -196 myotubes, 1 μM, to levels similar to healthy controls",reduced
same,apoptosis (active caspase-3) across FSHD1 and FSHD2 lines,active Caspase-3,reduction
same,impact to MYOG mRNA expression,myogenin (MYOG) mRNA,no impact
CCc1nc(-c2cccc(C)c2)c(-c2ccnc(NC(=O)c3ccccc3)c2)s1 [TAK-715],impact to MYOG mRNA expression,myogenin (MYOG) mRNA,no impact
COc1nccc(-c2c(-c3ccc(F)cc3)ncn2C2CCC(O)CC2)n1 (stereo not drawn) [SB239063],impact to MYOG mRNA expression,myogenin (MYOG) mRNA,no impact
NC(=O)c1ccc(N(C(N)=O)c2c(F)cccc2F)nc1-c1ccc(F)cc1F [VX-702],impact to MYOG mRNA expression,myogenin (MYOG) mRNA,no impact
